Results from ChEMBL document CHEMBL4613209, “Quinolone hybrids and their anti-cancer activities: An overview” (Eur J Med Chem, 2019).

How the values were obtained:
SMMC-7721 [1] = assay: Cytotoxicity against human SMMC7721 cells assessed as reduction in cell viability; format: functional, cell-based
L1210 [2] = assay: Cytotoxicity against mouse L1210 cells assessed as reduction in cell viability; format: functional, cell-based
HL-60 [3] = assay: Cytotoxicity against human HL60 cells assessed as reduction in cell viability; format: functional, cell-based
PC-3 = assay: Antiproliferative activity against human PC3 cells by CCK8 assay; format: functional, cell-based
MCF7 [4] = assay: Antiproliferative activity against human MCF7 cells by CCK8 assay; format: functional, cell-based
HeLa = assay: Antiproliferative activity against human HeLa cells by CCK8 assay; format: functional, cell-based
A549 [5] = assay: Antiproliferative activity against human A549 cells by CCK8 assay; format: functional, cell-based
MCF-10A = assay: Antiproliferative activity against human MCF10A cells by CCK8 assay; format: cell-based
HepG2 = assay: Antiproliferative activity against human HepG2 cells by CCK8 assay; format: functional, cell-based
U-251 = assay: Cytotoxicity against human U251 cells assessed as reduction in cell viability by SRB assay; format: functional, cell-based
HCT-116 = assay: Cytotoxicity against human HCT116 cells assessed as reduction in cell viability by SRB assay; format: functional, cell-based
NCI-H460 = assay: Cytotoxicity against human NCI-H460 cells assessed as reduction in cell viability by SRB assay; format: functional, cell-based
Hep 3B2 [6] = assay: Cytotoxicity against human Hep3B cells assessed as reduction in cell viability; format: functional, cell-based
CAPAN-1 [7] = assay: Cytotoxicity against human Capan1 cells assessed as reduction in cell viability; format: functional, cell-based
SW480 = assay: Cytotoxicity against human SW480 cells assessed as reduction in cell viability by MTT assay; format: functional, cell-based
SMMC-7721 [8] = assay: Antiproliferative activity against human SMMC7721 cells by MTT assay; format: functional, cell-based
L1210 [9] = assay: Antiproliferative activity against mouse L1210 cells by MTT assay; format: functional, cell-based
Hep 3B2 [10] = assay: Cytotoxicity against human Hep3B cells assessed as reduction in cell viability by MTT assay; format: functional, cell-based
A549 [11] = assay: Antiproliferative activity against human A549 cells after 72 hrs by MTT assay; format: functional, cell-based; conditions: A549, 72 h
SK-MEL3 = assay: Cytotoxicity against human SK-MEL-3 cells assessed as reduction in cell viability by MTT assay; format: functional, cell-based
CHO = assay: Cytotoxicity against CHO cells assessed as reduction in cell viability; format: functional, cell-based; conditions: Cricetulus griseus
HL-60 [12] = assay: Antiproliferative activity against human HL60 cells after 72 hrs by MTT assay; format: functional, cell-based; conditions: HL-60, 72 h
L1210 [13] = assay: Cytotoxicity against mouse L1210 cells assessed as reduction in cell viability by MTT assay; format: functional, cell-based
HL-60 [14] = assay: Antiproliferative activity against human HL60 cells by MTT assay; format: functional, cell-based
HL-60 [15] = assay: Cytotoxicity against human HL60 cells assessed as reduction in cell viability by MTT assay; format: functional, cell-based
CAPAN-1 [16] = assay: Cytotoxicity against human Capan1 cells assessed as reduction in cell viability by MTT assay; format: functional, cell-based
EJ = assay: Cytotoxicity against human EJ cells assessed as reduction in cell viability by MTT assay; format: functional, cell-based
A-431 = assay: Cytotoxicity against human A431 cells assessed as reduction in cell viability by MTT assay; format: functional, cell-based
MCF7 [17] = assay: Cytotoxicity against human MCF7 cells assessed as reduction in cell viability by MTT assay; format: functional, cell-based
SMMC-7721 [18] = assay: Cytotoxicity against human SMMC7721 cells assessed as reduction in cell viability by MTT assay; format: functional, cell-based

CCn1cc(-c2nnc(SC/C(=N/NC(N)=S)c3ccc(C)cc3)[nH]2)c(=O)c2cc(F)c(N3CCN(C)CC3)cc21
IC50 (SMMC-7721 [1]): 2.7 to 27.6 µM
IC50 (L1210 [2]): 2.7 to 27.6 µM
IC50 (HL-60 [3]): 2.7 to 27.6 µM

CCn1cc(-c2nnc(SC/C(=N/NC(N)=S)c3ccc(O)c(OC)c3)[nH]2)c(=O)c2cc(F)c(N3CCN(C)CC3)cc21
IC50 (SMMC-7721 [1]): 2.7 to 8.6 µM
IC50 (L1210 [2]): 2.7 to 8.6 µM
IC50 (HL-60 [3]): 2.7 to 8.6 µM

C[C@H]1COc2c(N3CCN(C)CC3)c(F)cc3c(=O)c(C(=O)NCc4cn(CCCCCCC(=O)O)nn4)cn1c23
IC50 (PC-3): 7.8 to 16.5 µM
IC50 (MCF7 [4]): 7.8 to 16.5 µM
IC50 (HeLa): 7.8 to 16.5 µM
IC50 (A549 [5]): 7.8 to 16.5 µM
IC50 (MCF-10A): > 100 µM
IC50 (HepG2): 7.8 to 16.5 µM

CCn1cc(-c2nnc(SC/C(=N/NC(N)=S)c3ccccc3)[nH]2)c(=O)c2cc(F)c(N3CCN(C)CC3)cc21
IC50 (SMMC-7721 [1]): 2.7 to 27.6 µM
IC50 (L1210 [2]): 2.7 to 27.6 µM
IC50 (HL-60 [3]): 2.7 to 27.6 µM

C[C@H]1COc2c(N3CCN(C)CC3)c(F)cc3c(=O)c(C(=O)O)cn1c23 [LEVOFLOXACIN]
IC50 (PC-3): 64.2 to 100 µM
IC50 (MCF7 [4]): 64.2 to 100 µM
IC50 (HeLa): 64.2 to 100 µM
IC50 (A549 [5]): 64.2 to 100 µM
IC50 (MCF-10A): 25.2 µM
IC50 (HepG2): 64.2 to 100 µM

O=c1[nH]c2ccccc2c2n[nH]c(-c3cn(-c4ccccc4)nc3-c3ccccc3)c12
IC50 (U-251): 0.16 to 0.3 µM
IC50 (HCT-116): 0.16 to 0.3 µM
IC50 (NCI-H460): 0.16 to 0.3 µM

O=C(CCCCCn1cc(C(=O)Nc2nccs2)c(=O)c2ccccc21)NO
IC50 (U-251): 5 to 16 µM
IC50 (HCT-116): 5 to 16 µM
IC50 (NCI-H460): 5 to 16 µM

CC(=O)n1cc2c(=O)[nH]c3ccccc3c2n1
IC50 (U-251): 0.16 to 0.3 µM
IC50 (HCT-116): 0.16 to 0.3 µM
IC50 (NCI-H460): 0.16 to 0.3 µM

COC(=O)c1ccc(/C=c2\sc3nc(-c4cn(C5CC5)c5cc(N6CCN(C)CC6)c(F)cc5c4=O)nn3c2=O)cc1
IC50 (Hep 3B2 [6]): 0.3 to 8.4 µM
IC50 (CAPAN-1 [7]): 0.3 to 8.4 µM
IC50 (HL-60 [3]): 0.3 to 8.4 µM

CN1CCN(c2cc3c(cc2F)c(=O)c(-c2nc4s/c(=C\c5ccc(C(=O)O)cc5)c(=O)n4n2)cn3C2CC2)CC1
IC50 (Hep 3B2 [6]): 0.3 to 8.4 µM
IC50 (CAPAN-1 [7]): 0.3 to 8.4 µM
IC50 (HL-60 [3]): 0.3 to 8.4 µM

O=c1[nH]c2ccccc2c2n[nH]c(/C=C/c3ccccc3)c12
IC50 (U-251): 0.16 to 0.3 µM
IC50 (HCT-116): 0.16 to 0.3 µM
IC50 (NCI-H460): 0.16 to 0.3 µM

O=C(CCCCCn1cc(C(=O)Nc2nc3ccccc3s2)c(=O)c2cc(F)ccc21)NO
IC50 (U-251): 0.6 to 16 µM
IC50 (HCT-116): 0.6 to 16 µM
IC50 (NCI-H460): 0.6 to 16 µM

O=C(O)c1cn(C2CC2)c2cc(N3CCNCC3)c(F)cc2c1=O [CIPROFLOXACIN]
IC50 (SW480): 137 to 238 µM
IC50 (SMMC-7721 [8]): ≥ 100 µM
IC50 (L1210 [9]): ≥ 100 µM
IC50 (Hep 3B2 [10]): > 100 µM
IC50 (A549 [11]): > 0.302 µM
IC50 (SK-MEL3): 137 to 238 µM
IC50 (CHO): > 150 µM
IC50 (HL-60 [12]): > 0.302 µM
IC50 (L1210 [2]): > 150 µM
IC50 (L1210 [13]): > 100 µM
IC50 (HL-60 [14]): ≥ 100 µM
IC50 (HL-60 [3]): > 150 µM
IC50 (HL-60 [15]): > 100 µM
IC50 (CAPAN-1 [16]): > 100 µM
IC50 (EJ): 137 to 238 µM
IC50 (A-431): 137 to 238 µM
IC50 (MCF7 [17]): > 100 µM
IC50 (SMMC-7721 [18]): 137 to 238 µM

COc1ccc(-c2c3c(=O)[nH]c4ccccc4c3nn2C(C)=O)cc1
IC50 (U-251): 0.16 to 0.3 µM
IC50 (HCT-116): 0.16 to 0.3 µM
IC50 (NCI-H460): 0.16 to 0.3 µM

COc1ccc2c(c1)c(=O)c(C(=O)Nc1cc(-c3ccccc3)nn1C)cn2CCCCCC(=O)NO
IC50 (U-251): 0.6 to 16 µM
IC50 (HCT-116): 0.6 to 16 µM
IC50 (NCI-H460): 0.6 to 16 µM

Cc1ccc(/C=c2\sc3nc(-c4cn(C5CC5)c5cc(N6CCN(C)CC6)c(F)cc5c4=O)nn3c2=O)cc1
IC50 (Hep 3B2 [6]): > 10 µM
IC50 (CAPAN-1 [7]): > 10 µM
IC50 (HL-60 [3]): > 10 µM

O=c1[nH]cc(F)c(=O)[nH]1 [FLUOROURACIL]
IC50 (U-251): 0.54 µM
IC50 (HCT-116): 0.54 µM
IC50 (NCI-H460): 0.54 µM

Cc1csc(NC(=O)c2cn(CCCCCC(=O)NO)c3ccccc3c2=O)n1
IC50 (U-251): 2.43 to 2.9 µM
IC50 (HCT-116): 2.43 to 2.9 µM
IC50 (NCI-H460): 2.43 to 2.9 µM

COC(=O)c1cccc(/C=c2\sc3nc(-c4cn(C5CC5)c5cc(N6CCN(C)CC6)c(F)cc5c4=O)nn3c2=O)c1
IC50 (Hep 3B2 [6]): 0.3 to 8.4 µM
IC50 (CAPAN-1 [7]): 0.3 to 8.4 µM
IC50 (HL-60 [3]): 0.3 to 8.4 µM

O=C(CCCCCCC(=O)Nc1ccccc1)NO [VORINOSTAT]
IC50 (HeLa): 2.9 to 6.4 µM
IC50 (A549 [5]): 2.9 to 6.4 µM

CCn1cc(-c2nnc(SC/C(=N/NC(N)=S)c3ccccc3OC)[nH]2)c(=O)c2cc(F)c(N3CCN(C)CC3)cc21
IC50 (SMMC-7721 [1]): 2.7 to 27.6 µM
IC50 (L1210 [2]): 2.7 to 27.6 µM
IC50 (HL-60 [3]): 2.7 to 27.6 µM

COc1ccccc1/C=c1\sc2nc(-c3cn(C4CC4)c4cc(N5CCN(C)CC5)c(F)cc4c3=O)nn2c1=O
IC50 (Hep 3B2 [6]): > 10 µM
IC50 (CAPAN-1 [7]): > 10 µM
IC50 (HL-60 [3]): > 10 µM

CCn1cc(-c2nnc(SC/C(=N/NC(N)=S)c3ccccc3O)[nH]2)c(=O)c2cc(F)c(N3CCN(C)CC3)cc21
IC50 (SMMC-7721 [1]): 2.7 to 8.6 µM
IC50 (L1210 [2]): 2.7 to 8.6 µM
IC50 (HL-60 [3]): 2.7 to 8.6 µM
